Experimental data taken from patent US12576040B2, “Ionizable lipids and methods of manufacture and use thereof” (priority 2020, dated 2026).
Where two headings read alike, the source gives them in different places. Marks after values point to notes of the source that are not given here.

Tests used:
[1] = Table 11a; known ionizable lipids, LNP pKa; cited from earlier work
[2] = type: physicochemical; conditions: Table 11a
Method: In certain embodiments, the pKa of the Ionizable Lipids of the Invention included in the LNP is measured by fluorescent enhancement of an anionic lipophilic dye TNS binding to the LNP containing the ionizable lipid. Prior studies have shown that the TNS pKa needs to be near 6.5 for efficient delivery to liver upon IV administration. The pKa in the aqueous phase can be predicted by software such ACDLabs Percepta, resulting in pKas that are higher than the TNS pKa. Given the importance of the LNP pKa in determining their efficiency, we developed new methods (zeta potential, ^1H NMR, modeling) to link the intrinsic pKa of the ionizable lipid to LNP ionization properties, in order to rationally design effective systems for mRNA delivery.
In certain embodiments, the hydrophilic DMG-PEG forms the shell of the LNP. The amount of nucleic acid is represented by the NP mole ratio of the amine on the ionizable lipid to the phosphate groups on the nucleic acid backbone and is typically 3-6. In certain embodiments, the pKa of the LNP to be in the 6-7 range corresponding to the pH in the early endosome. […] The pKa of the LNP was measured using the pH-dependence of fluorescence enhancement of the anionic dye TNS. In certain embodiments, the pKa-dependent endosomal release mechanism was described as an ion-pairing event between the cationic protonated ionizable lipid and anionic endosomal phospholipids where a divergent cone-shape lipid tail of the ionizable lipid facilitates membrane rupture.

[3] = Dynamic Light Scattering for LNP size; type: physicochemical; conditions: number-average from DLS
Method: (§1) • A: Ribogreen Assay for mRNA Encapsulation Efficiency. 1×TE Buffer and Triton Buffer (2% v/v in 1×TE Buffer) were added in duplicates into a black microplate per LNP. LNPs were diluted to 4 ng/ul in 1×DPBS pH 7.4 and added to each TE/Triton well in a ratio 1:1. Two standard curves were included in the Ribogreen Assay, one containing mRNA and 1×TE Buffer and other containing mRNA and Triton Buffer. Each one of these standard curves were used to calculate the mRNA concentration in each TE Buffer or Triton Buffer. This approach using two standard curves is more accurate for calculating the encapsulation efficiency and mRNA concentrations, in comparison to a single standard curve. Standards were included in the microplate after diluted LNPs were added to the plate. Microplates were incubated at 37° C. for 10 minutes to extract LNPs with Triton. Ribogreen reagent was diluted 1:100 in 1×TE Buffer and added to each well in a ratio 1:1. Microplates were immediately introduced into the Cytation 5 Cell Imaging Multi-Mode Reader (Biotek) to read Fluorescence (Ex485/Em528). The results are illustrated in FIG. 34. • B: Dynamic Light Scattering for LNP Size (red dots are PDI right y axis). LNPs were diluted to 6.25 ng/ul in 1×DPBS pH 7.4 and transferred into a quartz cuvette (ZEN2112) to measure size by Dynamic Light Scattering (DLS) in the Zetasizer Nano ZS (Malvern Panalytical) using particle RI of 1.45 and Absorption of 0.001 in 1×PBS at 25° C. with viscosity of 1.02 cP and RI of 1.335. Measurements were made using a 173° Backscatter angle of detection previously equilibrated to 25° C. for 30 seconds in duplicates, each with 5 runs and 10 second run duration, without delay between measurements. […] Data was analyzed using a General-Purpose model with normal resolution. The results are illustrated in FIG. 35. • C: Zeta Potential for LNP charge, pKa and pI. LNPs were diluted in a 75 mM TNS Buffer (10 mM of each of glycylglycine, acetate, imidazole, 20 mM borate, 25 mM NaCl) to contain 0.8 mg of total mRNA in 800 ul of the TNS Buffer and transferred into a Folded Capillary Zeta Cell (DTS1070) to measure size by Dynamic Light Scattering (DLS) and electrophoretic mobility by Electrophoretic Light Scattering (ELS) in the Zetasizer Nano ZS (Malvern Panalytical). Zeta potential is measured under conditions of controlled voltage to limit ohmic heating in a solution with 4 buffers with pKas spread across the pH range 3-10 with 0.5 intervals. LNP pKa is calculated by fitting the Henderson Hasselbalch equation to zeta potential data. LNP pI is found by interpolating zeta potential to zero. We use electrokinetic models to calculate Henry's function and charge of the LNP. The results are illustrated in FIG. 36. • D: TNS Assay for LNP pKa. LNPs were diluted to keep a final concentration of 75 uM of the ionizable lipid and 6 uM of TNS in a 75 mM TNS Buffer (10 mM of each of glycylglycine, acetate, imidazole, 20 mM borate, 25 mM NaCl) in order to keep a ratio TNS/ionizable of 0.08. Fluorescence TNS is measured in a solution with 4 buffers with pKas spread across the pH range 3-10 with 0.5 intervals. The pKa of the LNP was measured using the pH-dependence of fluorescence enhancement of the anionic dye TNS, higher intensity at lower pH and lower at high pH. LNP pKa is calculated by fitting the Henderson Hasselbalch equation to fluorescence data from the TNS Assay. The results are illustrated in FIG. 37. […]

[4] = type: physicochemical; conditions: LNP containing the ionizable lipid
Method: as §1, with “LNPs were diluted to keep a final concentration of 75 uM of the ionizable lipid and 6 uM of TNS in a 75 mM TNS Buffer (10 mM of each of glycylglycine, acetate, imidazole, 20 mM borate, 25 mM NaCl) in order to keep a ratio TNS/ionizable of 0.08.” left out, “Assay.” for “Assay. The results are illustrated in FIG. 37.”
LNP pKa was determined using the TNS assay. […] The Cytation 5 Cell Imaging Multi-Mode Reader (Biotek) was used to read Fluorescence (Ex321/Em445). The pH was measured in each well after TNS addition. […]

[5] = type: physicochemical; conditions: for pKa,ZP: LNP containing the ionizable lipid, Henderson Hasselbalch fit to zeta potential; for pI, ZP: LNP isoelectric pI from zeta potential
Method: • A: Ribogreen Assay for mRNA Encapsulation Efficiency. 1×TE Buffer and Triton Buffer (2% v/v in 1×TE Buffer) were added in duplicates into a black microplate per LNP. LNPs were diluted to 4 ng/ul in 1×DPBS pH 7.4 and added to each TE/Triton well in a ratio 1:1. Two standard curves were included in the Ribogreen Assay, one containing mRNA and 1×TE Buffer and other containing mRNA and Triton Buffer. Each one of these standard curves were used to calculate the mRNA concentration in each TE Buffer or Triton Buffer. This approach using two standard curves is more accurate for calculating the encapsulation efficiency and mRNA concentrations, in comparison to a single standard curve. Standards were included in the microplate after diluted LNPs were added to the plate. Microplates were incubated at 37° C. for 10 minutes to extract LNPs with Triton. Ribogreen reagent was diluted 1:100 in 1×TE Buffer and added to each well in a ratio 1:1. Microplates were immediately introduced into the Cytation 5 Cell Imaging Multi-Mode Reader (Biotek) to read Fluorescence (Ex485/Em528). The results are illustrated in FIG. 34. • B: Dynamic Light Scattering for LNP Size (red dots are PDI right y axis). LNPs were diluted to 6.25 ng/ul in 1×DPBS pH 7.4 and transferred into a quartz cuvette (ZEN2112) to measure size by Dynamic Light Scattering (DLS) in the Zetasizer Nano ZS (Malvern Panalytical) using particle RI of 1.45 and Absorption of 0.001 in 1×PBS at 25° C. with viscosity of 1.02 cP and RI of 1.335. Measurements were made using a 173° Backscatter angle of detection previously equilibrated to 25° C. for 30 seconds in duplicates, each with 5 runs and 10 second run duration, without delay between measurements. […] Data was analyzed using a General-Purpose model with normal resolution. The results are illustrated in FIG. 35. • C: Zeta Potential for LNP charge, pKa and pI. LNPs were diluted in a 75 mM TNS Buffer (10 mM of each of glycylglycine, acetate, imidazole, 20 mM borate, 25 mM NaCl) to contain 0.8 mg of total mRNA in 800 ul of the TNS Buffer and transferred into a Folded Capillary Zeta Cell (DTS1070) to measure size by Dynamic Light Scattering (DLS) and electrophoretic mobility by Electrophoretic Light Scattering (ELS) in the Zetasizer Nano ZS (Malvern Panalytical). Zeta potential is measured under conditions of controlled voltage to limit ohmic heating in a solution with 4 buffers with pKas spread across the pH range 3-10 with 0.5 intervals. LNP pKa is calculated by fitting the Henderson Hasselbalch equation to zeta potential data. LNP pI is found by interpolating zeta potential to zero. We use electrokinetic models to calculate Henry's function and charge of the LNP. The results are illustrated in FIG. 36. • D: TNS Assay for LNP pKa. LNPs were diluted to keep a final concentration of 75 uM of the ionizable lipid and 6 uM of TNS in a 75 mM TNS Buffer (10 mM of each of glycylglycine, acetate, imidazole, 20 mM borate, 25 mM NaCl) in order to keep a ratio TNS/ionizable of 0.08. Fluorescence TNS is measured in a solution with 4 buffers with pKas spread across the pH range 3-10 with 0.5 intervals. The pKa of the LNP was measured using the pH-dependence of fluorescence enhancement of the anionic dye TNS, higher intensity at lower pH and lower at high pH. LNP pKa is calculated by fitting the Henderson Hasselbalch equation to fluorescence data from the TNS Assay. The results are illustrated in FIG. 37.
LNPs were diluted to 6.25 ng/μL total mRNA in PBS pH=7.4 and transferred into a quartz cuvette (ZEN2112) to measure size by Dynamic Light Scattering (DLS) in the Zetasizer Nano ZS (Malvern Panalytical) using particle RI of 1.45 and absorption of 0.001 in PBS at 25° C. with viscosity of 0.888 cP and RI of 1.335. Measurements were made using a 1730 backscatter angle of detection previously equilibrated to 25° C. for 30 seconds in duplicates, each with 5 runs and 10 second run duration, without delay between measurements. […]

[6] = mRNA copies per LNP from molecular volume model and DLS diameter; type: physicochemical; conditions: average mRNA copies per LNP
Method: Exemplary ADDE ionizable lipids. pKas were obtained from ACDLabs Percepta for the ionizable lipid, and by zeta potential and TNS for LNPs containing the ionizable lipids. LNP isoelectric pI was obtained from the zeta potential. LNP diameter is number-average from DLS. Average mRNA copies per LNP was calculated using a molecular volume model and the DLS diameter and is proportional to LNP volume.
LNPs were diluted to 6.25 ng/μL total mRNA in PBS pH=7.4 and transferred into a quartz cuvette (ZEN2112) to measure size by Dynamic Light Scattering (DLS) in the Zetasizer Nano ZS (Malvern Panalytical) using particle RI of 1.45 and absorption of 0.001 in PBS at 25° C. with viscosity of 0.888 cP and RI of 1.335. Measurements were made using a 1730 backscatter angle of detection previously equilibrated to 25° C. for 30 seconds in duplicates, each with 5 runs and 10 second run duration, without delay between measurements. […] Data was analyzed using a General-Purpose model with normal resolution. Diameter are reported as the number-average that corresponds more closely to physical size seen in electron microscopy versus the zeta-average. A molecular volume model described previously was used to estimate the number of mRNA copies in the LNP using the number average diameter to calculate LNP volume. LNPs were diluted into the TNS buffer described above at pH ranging from 3-10 for zeta potential measurement by Electrophoretic Light Scattering (ELS) in the Zetasizer Nano ZP (Malvern Panalytical) using the same material and dispersant parameters described above and the Smoluchowski model. Each measurement had voltage set manually at 80 Volts to avoid ohmic heating that occurred if voltage was set automatically. Measurements in the disposable folded capillary cuvette with an automatic attenuation selection for photon counts were made in triplicates for 20 runs each, and 30 second delay between each replicate. Mathematica was used to fit zeta potential data to the data to the extended Henderson-Hasselbalch equation Ψ=Ψ_max−((Ψ_max−Ψ_min))/((1+10^(((pKa−pH))/n))) to provide the pKa, n and low pH and high pH zeta potential limits Ψ_max and Ψ_min, respectively. The extended model is used here, since the LNP pKa is ionization-state-dependent in a way similar to a polyelectrolyte. […] The isoelectric pI was the pH found by interpolating zeta potential to zero. Cryoelectron Microscopy

CCCCCCCC(=O)N(CCCN1CCCC1)C(CCCCCCCCC(=O)OC(CCCC)CCCCCC)CCCCCCCCC(=O)OC(CCCC)CCCCCC (stereo not shown) [Acuitas Compound 15]
pKa, TNS [1]: 6.32 | ΔpKa = Classic-Galas [2]: 3.38 | ΔpKa = Classic-TNS [2]: 3.98

CCCCC/C=C\C/C=C\CCCCCCCCOC(=O)CCN(CCC(=O)OCCCCCCCC/C=C\C/C=C\CCCCC)CCN1CCN(C)CC1 (racemic) [DL-C2/C2-PipZ]
Diameter (nm) [3]: 64 nm | pKa, TNS [4]: 7.8 | pKa,ZP [5]: 6.2 | pI, ZP [5]: 7.6 | mRNA copies [6]: 4.3

CCCCC/C=C\C/C=C\CCCCCCCCC(CCCCCCCC/C=C\C/C=C\CCCCC)OC(=O)CCCN(C)C [MC3]
pKa, TNS [1]: 6.44 | ΔpKa = Classic-Galas [2]: 2.66 | ΔpKa = Classic-TNS [2]: 2.96

CCCCCCCCCCC(CCCCCCCC)COC(=O)CCN(CCC(=O)OCC(CCCCCCCC)CCCCCCCCCC)CCN1CCN(C)CC1 (stereo not shown) [BODD-C2/C2-PipZ]
Diameter (nm) [3]: 49 nm | pKa, TNS [4]: 6.6 | pKa,ZP [5]: 5.4 | pI, ZP [5]: 5.9 | mRNA copies [6]: 1.9

CCCCC/C=C\C/C=C\CCCCCCCCOC(=O)CCN(CCC(=O)OCCCCCCCC/C=C\C/C=C\CCCCC)CCN1CCCC1 (racemic) [DL-C2/C2-Pyr]
Diameter (nm) [3]: 48 nm | pKa, TNS [4]: 7.9 | pKa,ZP [5]: 6.8 | pI, ZP [5]: 7.2 | mRNA copies [6]: 1.5

CCCCC/C=C\C/C=C\CCCCCCCCOC(=O)CCN(CCC(=O)OCCCCCCCC/C=C\C/C=C\CCCCC)CCN(C)C (racemic) [DL-C2/C2-DMA]
Diameter (nm) [3]: 40 nm | pKa, TNS [4]: 8.0 | pKa,ZP [5]: 6.9 | pI, ZP [5]: 7.1 | mRNA copies [6]: 1.1

CCCCCCCC/C=C\CCCCCCCC(=O)OCC(CN(C)C)OC(=O)CCCCCCC/C=C\CCCCCCCC (stereo not shown) [DODAP, 1,2-dioleoyl-3-dimethylammonium propane]
pKa, TNS [1]: 5.8 | ΔpKa = Classic-Galas [2]: 1.8 | ΔpKa = Classic-TNS [2]: 2.2

CCCCCCCCCCOC(=O)CCCCCN(CCO)CCCCCCCC(=O)OC(CCCCCCCC)CCCCCCCC [Moderna Lipid H]
pKa, TNS [1]: 6.68 | ΔpKa = Classic-Galas [2]: 3.12 | ΔpKa = Classic-TNS [2]: 2.22

CCCCCCCCCCC(CCCCCCCC)COC(=O)CCN(CCCCN1CCN(C)CC1)CCC(=O)OCC(CCCCCCCC)CCCCCCCCCC (stereo not shown) [BODD-C2/C4-PipZ]
Diameter (nm) [3]: 55 nm | pKa, TNS [4]: 7.0 | pKa,ZP [5]: 4.9* | pI, ZP [5]: 5.8 | mRNA copies [6]: 3.3
